Laboratory results: US20080008999A1, “Process for detecting the existence of mesenchymal chrondrosarcoma” (priority 2004, published 2008)
Where a name gives a salt, the structure may show the parent alone.

What was measured:
K562 tumor cells = assay: KOR assay, optical density versus time of cell cultures (FIG. 13); format: cell-based
Excerpt: Referring again to FIG. 6, and in the preferred embodiment depicted therein, a 96 well microtiter dish 310 is preferably used, and a light source 312 shines light through the samples disposed in such dish. The light source preferably provides light with a wavelength of from 200 about 800 nanometers. In one embodiment, the wavelength provided by the light source is from about 300 to about 700 nanometers. In yet another embodiment, the wavelength provided by the light source is from about 340 to about 660 nanometers.
Referring again to FIG. 6, and in the preferred embodiment depicted therein, the transmittance values measured by sensor 314 may be converted into optical density values in accordance with the formula: Dw=-log10Tw, wherein Tw is the measured transmittance of the sample measured at the specified wavelength (w) of the light used, and Dw is the optical density of the sample at the specified wavelength of the light used.
Thus, applicant's process allows one to measure the true optical density of a sample rather than mere absorbance. Once such optical density has been measured, one can then plot optical density versus time (as illustrated in the Figures of U.S. Pat. No. 6,258,553) and obtain a true rather than a distorted indication of cell apoptosis. […]

[1] = tested on: epithelial carcinoma cells; assay: exposure of cells to radiolabeled lineage specific hormones (FIG. 19); format: cell-based
Excerpt: FIG. 19 is a representation of the results of exposing cells to various lineage specific hormones. […] Reference may be had to U.S. Pat. No. 6,565,827 (radioimmunotherapy of lymphoma using anti-CD20 antibodies), U.S. Pat. No. 6,287,537 (radioimmunotherapy of lymphoma using anti-CD20 antibodies), U.S. Pat. No. 6,015,542 (radioimmunotherapy of lymphoma using anti-CD20 antibodies), and U.S. Pat. No. 5,843,398 (radioimmunotherapy of lymphoma using anti-CD 20 antibodies). The entire disclosure of these United States patents are hereby incorporated by reference into this specification. […] In another embodiment (see graph 1300) epithelial cells, 1310, and ovarian cancer cells, 1320, are exposed to radiolabeled estrogen. Over 90 percent of the ovarian cancer cells are killed upon exposure to the radiolabeled estrogen but less than 30 percent of the epithelial carcinoma cells are killed upon exposure.

Molecule | slope of optical density versus time relative to control slope (K562 tumor cells; K562 tumor cells derived from a patient with chronic myelogenous leukemia) | apoptosis peak in the KOR assay (K562 tumor cells; optical density versus time) | epithelial carcinoma cells killed upon exposure [1]
Cc1ccc(NC(=O)c2ccc(CN3CCN(C)CC3)cc2)cc1Nc1nccc(-c2cccnc2)n1 [imatinib mesylate] | dose-dependent decrease in slope | do not produce | 
radiolabeled epithelial growth factor: radiolabeled ligand used to kill cells that possess receptors for the particular ligand (NSDSECPLSHDGYCLHDGVCMYIEALDKYACNCVVGYIGERCQYRDLKWWELR; Epidermal growth factor radiolabel; UniProt P01133 971-1023, looked up) |  |  | more than 50%
